Row | melting point [°C] | Structure (SMILES)
1 | 182 | CN/C(=C(/C#N)C(=O)c1ccc(Cl)cc1)c1ccc(Cl)cc1 [Example 3, 2-(4-chlorobenzoyl)-3-(4-chlorophenyl)-3-(N-methylamino)-propenonitrile]
2 | 215 | C/C(NC1CC1)=C(\C#N)C(=S)c1ccc(Cl)cc1 [Example 8, 2-[(4-chlorophenyl)-thiocarbonyl]-3-(N-cyclopropylamino)-crotononitrile]

— patent US7049271B2, “Phenyl-substituted 2-enamino-ketonitriles” (Bayer Aktiengesellschaft, priority 2000, dated 2006)
